This note sets out measurements from US12180208B1, “Pyrazolo[1,5-c]pyrido[3,4-e]pyrimidines as CK2 inhibitors” (KING FAISAL UNIVERSITY, priority 2024, dated 2024).

The test system of test [1] is PC3 (prostate). The test can be described thus: In vitro cytotoxic activity (MTT) assay, PC3. Type of test: cell-based. Conditions: Homo sapiens, 96 hours exposure, read-out: Cytotoxicity activity IC50 (50% inhibition of cell proliferation). How it is done:
(§1) Compounds 1-16 were screened for their in vitro cytotoxic activity utilizing a 3-(4,5-dimethyl-thiazol-2-yl)-2,5-diphenyltetrazolium bromide (MTT) assay against selected cancer human cell lines consisting of PC3 (prostate), HCT116 (colon), A375 (melanoma), H1299 (lung), MIAPaCa-2 (pancreas), HL60 (leukemia), MCF7 (breast), MDA-MB-231 (breast) (T. Mosmann, J. Immunol. Meth., 1983, 65, 55-63). The cells were cultured at 37° C. in RMPI1640 medium supplemented with 10% fetal bovine serum, 50 IU/mL penicillin, and 50 μg/mL streptomycin in a 5% CO2 incubator. All cells were sub-cultured 3 times/week by trypsinisation. Viable cells were seeded and allowed to adhere for 12 hours before a test drug was added in 96-well plates at an initial density of 1.0×10^5 cells/mL. Tumor cell lines were separately exposed to various concentrations of the tested compounds followed by incubation at a temperature of 37° C. during 96 hours inside a medium of fresh RMPI 1640. Cells were subsequently incubated at 37° C. using MTT at 0.5 mg/mL during 4 hours. After removal of supernatant, formazan crystals were dissolved in isopropanol and the optical density was measured at 570 nm. CX-4945 was used as a positive control.

Test [2] concerns HCT116 (colon). The test can be described thus: In vitro cytotoxic activity (MTT) assay, HCT116. The test is classed as cell-based. Conditions: Homo sapiens, HCT-116, 96 hours exposure, read-out: Cytotoxicity activity IC50 (50% inhibition of cell proliferation). How it is done: as §1
Test [3] deals with A375 (melanoma). The test can be described thus: In vitro cytotoxic activity (MTT) assay, A375. The test is classed as cell-based. Conditions: Homo sapiens, A-375, 96 hours exposure, read-out: Cytotoxicity activity IC50 (50% inhibition of cell proliferation). How it is done: as §1
In test [4] the test system is H1299 (lung). The test can be described thus: In vitro cytotoxic activity (MTT) assay, H1299. Type of test: cell-based. The following applies: Homo sapiens, NCI-H1299, 96 hours exposure, read-out: Cytotoxicity activity IC50 (50% inhibition of cell proliferation). How it is done: as §1
In test [5] the test system is MIAPaCa-2 (pancreas). Description: In vitro cytotoxic activity (MTT) assay, MIAPaCa-2. The test is classed as cell-based. The following applies: Homo sapiens, MIA PaCa-2, 96 hours exposure, read-out: Cytotoxicity activity IC50 (50% inhibition of cell proliferation). How it is done: as §1
Test [6] deals with HL60 (leukemia). The test can be described thus: In vitro cytotoxic activity (MTT) assay, HL60. Type of test: cell-based. Conditions: Homo sapiens, HL-60, 96 hours exposure, read-out: Cytotoxicity activity IC50 (50% inhibition of cell proliferation). How it is done: as §1
Test [7] deals with MCF7 (breast). The test can be described thus: In vitro cytotoxic activity (MTT) assay, MCF7. The test is classed as cell-based. The following applies: Homo sapiens, 96 hours exposure, read-out: Cytotoxicity activity IC50 (50% inhibition of cell proliferation). How it is done: as §1
Test [8] concerns MDA-MB-231 (breast). The test can be described thus: In vitro cytotoxic activity (MTT) assay, MDA-MB-231. Conditions: Homo sapiens, 96 hours exposure, read-out: Cytotoxicity activity IC50 (50% inhibition of cell proliferation). The test is classed as cell-based. How it is done:
as §1

The target of test [9] is T1, recombinant human CK2 (holoenzyme) (Homo sapiens, UniProt P68400).
T1 construct: purchased Millipore
Description: CK2 Kinase Assay (33P-ATP, filter plate). The following applies: final ATP concentration 15 μM, 10 min at 30° C.; read-out: protein kinase CK2 IC50. Type of test: biochemical. How it is done: CK2 Kinase Assay was conducted using the protocol as described in Pierre F. et al; J. Med. Chem. 2011, 54, 635-654. The tested compounds in aqueous solution were added at a volume of 10 μL to a reaction mixture comprising 10 μL of assay dilution buffer (ADB; 20 mM MOPS, pH 7.2, 25 mM β-glycerol phosphate, 5 mM EGTA, 1 mM sodium orthovanadate, and 1 mM dithiothreitol), 10 μL of substrate peptide (RRRDDDSDDD, dissolved in ADB at a concentration of 1 mM), 10 μL of recombinant human CK2 (RRββ-holoenzyme, 25 ng dissolved in ADB; Millipore). Reactions were initiated by the addition of 10 μL of ATP solution (90% 75 mMMgCl2, 75 μM ATP (final ATP concentration: 15 μM) dissolved in ADB; 10% [γ-33P] ATP (stock 1 mCi/100 μL; 3000 Ci/mmol (Perkin-Elmer) and maintained for 10 min at 30° C. The reactions were quenched with 100 μL of 0.75% phosphoric acid and then transferred to and filtered through a phosphor cellulose filter plate (Millipore). After washing each well five times with 0.75% phosphoric acid, the plate was dried under vacuum for 5 min and, following the addition of 15 μL of scintillation fluid to each well, the residual radioactivity was measured using a Wallac […] counter. The IC50 values were derived from eight concentrations of test inhibitors.

T1 sequence (P68400 whole entry): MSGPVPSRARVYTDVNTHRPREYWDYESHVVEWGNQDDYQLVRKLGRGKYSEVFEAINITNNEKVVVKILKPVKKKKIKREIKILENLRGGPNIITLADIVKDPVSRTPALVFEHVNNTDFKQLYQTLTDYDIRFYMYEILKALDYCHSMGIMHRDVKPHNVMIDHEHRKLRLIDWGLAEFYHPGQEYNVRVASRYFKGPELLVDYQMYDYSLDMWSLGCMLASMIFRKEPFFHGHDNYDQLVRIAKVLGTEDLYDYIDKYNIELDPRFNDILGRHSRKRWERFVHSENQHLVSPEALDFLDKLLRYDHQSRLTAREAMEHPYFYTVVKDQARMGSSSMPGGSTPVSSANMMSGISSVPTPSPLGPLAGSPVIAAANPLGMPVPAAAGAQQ
T1 sequence (P67870 whole entry partner): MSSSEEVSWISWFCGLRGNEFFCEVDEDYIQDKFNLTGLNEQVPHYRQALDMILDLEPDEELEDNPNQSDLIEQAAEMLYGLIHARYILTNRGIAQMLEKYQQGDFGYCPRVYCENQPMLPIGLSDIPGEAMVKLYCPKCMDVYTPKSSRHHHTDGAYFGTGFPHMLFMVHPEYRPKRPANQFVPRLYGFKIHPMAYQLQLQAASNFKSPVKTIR

Regarding `O=C(O)c1cc2c3cnccc3nc(Nc3cccc(Cl)c3)n2n1` [Compound 1, 6-((3-chlorophenyl)amino)pyrazolo[1,5-c]pyrido[3,4-e]pyrimidine-9-carboxylic Acid], the IC50 in test [1] came to 2.3 µM; in test [2], 3.1 µM; in test [3], 4.2 µM; in test [4] it was 2.5 µM; in test [5] it was 1.7 µM; in test [6], 5.1 µM. Further, the IC50 in test [7] is 5.6 µM; in test [8] it was 4.9 µM; in test [9] it was 0.055 µM.
